Measured values: the supplement of paper PMC10307832

Experiments:
Test in all cases: relative viability (nuclei count vs DMSO), 5 days (fraction); higher = more cells survive
[1] = compound: Cc1ccc(Nc2nccc(N(C)c3ccc4c(C)n(C)nc4c3)n2)cc1S(N)(=O)=O [Pazopanib] + CCNC(=O)c1noc(-c2cc(C(C)C)c(O)cc2O)c1-c1ccc(CN2CCOCC2)cc1 [Luminespib] (partner 0.01 µM)
Method in brief: (§1)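 Five library-drug doses in √10 steps were combined with a fixed anchor-drug dose, or a single drug was given alone, by pin tool to lung cancer cell lines in 1536-well plates the day after seeding. Nuclei were stained and counted after 5 days. Relative viability is the nuclei count in treated wells over that in vehicle wells, taken as the median of duplicate plates.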

[2] = compound: Cc1ccc(Nc2nccc(N(C)c3ccc4c(C)n(C)nc4c3)n2)cc1S(N)(=O)=O [Pazopanib] + COc1cc2c(Oc3ccc(NC(=O)C4(C(=O)Nc5ccc(F)cc5)CC4)cc3F)ccnc2cc1OCCCN1CCOCC1 [Foretinib] (partner 0.25 µM)
Method in brief: as §1

[3] = compound: Cc1ccc(Nc2nccc(N(C)c3ccc4c(C)n(C)nc4c3)n2)cc1S(N)(=O)=O [Pazopanib] + CS(=O)(=O)N1CCN(Cc2cc3nc(-c4cccc5[nH]ncc45)nc(N4CCOCC4)c3s2)CC1 [Pictilisib] (partner 1 µM)
Method in brief: as §1

[4] = compound: Cc1ccc(Nc2nccc(N(C)c3ccc4c(C)n(C)nc4c3)n2)cc1S(N)(=O)=O [Pazopanib] + C[C@]1(O)C[C@@H](c2nc(-c3ccc4ccc(-c5ccccc5)nc4c3)c3c(N)nccn32)C1 [Linsitinib] (partner 1 µM)
Method in brief: as §1

UMC-11
relative viability ([1]; first compound 0.01 µM): 1.08
relative viability ([1]; first compound 0.03162 µM): 0.994
relative viability ([1]; first compound 0.1 µM): 1.06
relative viability ([1]; first compound 0.3162 µM): 0.98
relative viability ([1]; first compound 1 µM): 1.09
relative viability ([2]; first compound 0.01 µM): 0.958
relative viability ([2]; first compound 0.03162 µM): 1.16
relative viability ([2]; first compound 0.1 µM): 1.19
relative viability ([2]; first compound 0.3162 µM): 1.07
relative viability ([2]; first compound 1 µM): 1.13
relative viability ([3]; first compound 0.01 µM): 0.724
relative viability ([3]; first compound 0.03162 µM): 0.879
relative viability ([3]; first compound 0.1 µM): 0.787
relative viability ([3]; first compound 0.3162 µM): 0.928
relative viability ([3]; first compound 1 µM): 1.13
relative viability ([4]; first compound 0.01 µM): 0.974
relative viability ([4]; first compound 0.03162 µM): 1.06
relative viability ([4]; first compound 0.1 µM): 1.1
relative viability ([4]; first compound 0.3162 µM): 1
relative viability ([4]; first compound 1 µM): 1.11
